Reference: PubChem BioAssay (NCI)
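Test compounds were applied to cells in 96-well plates for 48 hours at 5 doses. GI50 is the concentration that inhibits growth by half. TGI denotes the concentration required for complete inhibition of growth.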

What was measured:
Assay in all cases: growth of human tumour cells (NCI), 48 h
SF-539 CNS = system: SF-539 CNS
MDA-MB-231 breast = system: MDA-MB-231 breast
OVCAR-4 ovarian = system: OVCAR-4 ovarian
MDA-N = system: MDA-N
LOX IMVI melanoma = system: LOX IMVI melanoma
SNB-19 CNS = system: SNB-19 CNS
NCI-H23 lung = system: NCI-H23 lung
HT29 colon = system: HT29 colon
SK-MEL-5 melanoma = system: SK-MEL-5 melanoma
IGROV1 ovarian = system: IGROV1 ovarian

SMILES | TGI (SF-539 CNS) | TGI (MDA-MB-231 breast) | TGI (OVCAR-4 ovarian) | TGI (MDA-N) | TGI (LOX IMVI melanoma) | TGI (SNB-19 CNS) | TGI (NCI-H23 lung) | TGI (HT29 colon) | TGI (SK-MEL-5 melanoma) | GI50 (IGROV1 ovarian) | TGI (IGROV1 ovarian) | GI50 (SF-539 CNS) | GI50 (MDA-MB-231 breast) | GI50 (LOX IMVI melanoma) | GI50 (SNB-19 CNS) | GI50 (NCI-H23 lung) | GI50 (HT29 colon) | GI50 (SK-MEL-5 melanoma) | GI50 (OVCAR-4 ovarian)
O=C(NC(=S)NC(=O)c1cc(O)c(O)c(O)c1)c1cc(O)c(O)c(O)c1 | > 100 µM | 74.1 µM | 46.1 µM | 6.06 µM | 60.3 µM | 52.8 µM | 55.4 µM | 65.5 µM | 57.7 µM | – | – | – | – | – | – | – | – | – | –
COc1ccc2c(OCc3nnc4ccc(-c5ccccc5)nn34)ccnc2c1 | > 100 µM | > 100 µM | – | – | > 100 µM | > 100 µM | > 100 µM | > 100 µM | > 100 µM | > 100 µM | > 100 µM | > 100 µM | > 20.3 µM | > 100 µM | > 100 µM | > 100 µM | > 100 µM | > 100 µM | –
O=c1[nH]cnc2c1nnn2CCCCCCCCCCCCn1nnc2c(=O)[nH]cnc21 | 54.6 µM | – | > 100 µM | > 100 µM | > 100 µM | 54.9 µM | 39.2 µM | > 100 µM | > 100 µM | – | > 77.8 µM | – | – | – | – | – | – | – | –
C=CCOCn1cc(C)c(=O)[nH]c1=O | > 100 µM | > 100 µM | – | > 100 µM | > 100 µM | > 100 µM | > 100 µM | > 100 µM | > 100 µM | – | > 100 µM | – | – | – | – | – | – | – | –
C[C@H](C/C=C/C(C)(C)O)[C@H]1CC[C@@]2(C)[C@@H]3CC[C@H]4C(C)(C)[C@@H](O)CC[C@@]45C[C@@]35CC[C@]12C | 30.8 µM | 33.2 µM | 43.6 µM | > 100 µM | 29.4 µM | 54.9 µM | – | > 100 µM | – | – | 48.9 µM | – | – | – | – | – | – | – | –
CC(=O)N1CCn2c1nc1cc(Cl)ccc12 | > 100 µM | > 100 µM | > 100 µM | > 100 µM | > 100 µM | > 100 µM | – | > 100 µM | > 100 µM | – | > 100 µM | – | – | – | – | – | – | – | –
CC(=O)[CH-]C(=O)c1ccccc1.CC(=O)[CH-]C(=O)c1ccccc1.C[C@]12CCC(=O)C=C1CC[C@@H]1C2CC[C@@]2(C)C1CC[C@]2(C)[O-].C[C@]12CCC(=O)C=C1CC[C@@H]1C2CC[C@@]2(C)C1CC[C@]2(C)[O-].Cl.[Ti+4] (stereo partly drawn) | 29.3 µM | – | > 100 µM | – | 48.8 µM | 29.3 µM | 35.2 µM | 76 µM | – | 19.3 µM | 46.1 µM | 13.9 µM | – | 18.6 µM | 14 µM | 14.2 µM | 16.3 µM | – | 42.7 µM
Cc1cc(=O)[nH]c(NN2C(Cl)C(=O)C2c2cccc(Cl)c2)n1 (stereo not drawn) | 39.4 µM | – | 97 µM | – | 32.8 µM | 92.6 µM | 58.2 µM | 76.8 µM | 34.2 µM | – | 37.1 µM | – | – | – | – | – | – | – | –
COC(OC)[C@@H]1OC[C@@H](O)[C@@H]1n1cnc2c(N)ncnc21 | > 100 µM | > 100 µM | > 100 µM | > 100 µM | > 100 µM | – | > 100 µM | > 100 µM | > 100 µM | – | > 100 µM | – | – | – | – | – | – | – | –
Nc1c(Cl)ncnc1NCCCNc1ncnc(Cl)c1N | > 100 µM | – | > 100 µM | – | > 100 µM | > 100 µM | > 100 µM | > 100 µM | > 100 µM | – | > 100 µM | – | – | – | – | – | – | – | –
COc1cccc(/C=N/[N-]C(N)=O)c1[O-].[Cu+2].[OH3+].c1ccc(-c2ccccn2)nc1 | 67.7 µM | – | 33.1 µM | – | > 81.3 µM | 38.1 µM | 37.3 µM | > 100 µM | 31.6 µM | – | > 74.8 µM | – | – | – | – | – | – | – | –
O=C(NNc1ccccc1)/C(=C/c1ccc2c(c1)OCO2)NC(=O)c1ccccc1 | > 100 µM | – | > 100 µM | – | > 100 µM | > 100 µM | > 100 µM | > 100 µM | > 100 µM | – | > 100 µM | – | – | – | – | – | – | – | –
O=C1Nc2ccccc2Nc2ccncc21 | > 100 µM | – | > 100 µM | – | > 100 µM | > 100 µM | > 100 µM | > 100 µM | > 100 µM | – | > 100 µM | – | – | – | – | – | – | – | –
CC(=O)NC(CC(C)C)C(=O)NC(Cc1ccccc1)C(=S)N1CCCC1 (stereo not drawn) | – | – | > 100 µM | – | > 100 µM | > 100 µM | > 100 µM | > 100 µM | > 100 µM | – | > 100 µM | – | – | – | – | – | – | – | –
CC(C)(C)OC(=O)NCCCCC(NC(=O)c1ccccc1)C(N)=O (stereo not drawn) | > 100 µM | > 100 µM | > 100 µM | > 100 µM | > 100 µM | > 100 µM | > 100 µM | > 100 µM | > 100 µM | – | – | – | – | – | – | – | – | – | –
COc1ccc2oc(=O)c(-c3csc(C)n3)cc2c1 | 57 µM | 68 µM | > 100 µM | – | > 100 µM | > 100 µM | – | > 100 µM | > 100 µM | – | > 100 µM | – | – | – | – | – | – | – | –
COc1ccc(/C=N/n2cnc3[nH]c(C)c(Cc4ccccc4)c3c2=N)cc1 | – | > 100 µM | > 100 µM | > 100 µM | – | > 100 µM | > 100 µM | > 100 µM | > 100 µM | – | > 100 µM | – | – | – | – | – | – | – | –
O=P(O)(O)C1(P(=O)(O)O)CC1 | > 100 µM | – | > 100 µM | – | > 100 µM | > 100 µM | > 100 µM | > 100 µM | > 100 µM | – | > 100 µM | – | – | – | – | – | – | – | –
Clc1ccc(OCc2nn3c(CCc4nnc5sc(COc6ccc(Cl)cc6)nn45)nnc3s2)cc1 | > 100 µM | 61.8 µM | 57.7 µM | > 100 µM | > 100 µM | – | 72.1 µM | > 100 µM | 23.7 µM | – | 55.1 µM | – | – | – | – | – | – | – | –
COc1ccc(C(OCC2OC(n3ccc(NC(=O)c4ccccc4)nc3=O)CC2OP2(=S)SCCS2)(c2ccccc2)c2ccc(OC)cc2)cc1 (stereo not drawn) | – | > 100 µM | 68.6 µM | > 10 µM | 33.1 µM | 86.4 µM | > 100 µM | 69.7 µM | 43.9 µM | – | > 100 µM | – | – | – | – | – | – | – | –
CCOC(=O)C1=COC(C)(CCc2ccccc2)CC1=O (stereo not drawn) | > 100 µM | > 100 µM | > 100 µM | > 100 µM | – | > 100 µM | > 100 µM | > 100 µM | > 100 µM | – | – | – | – | – | – | – | – | – | –
NNC(=O)c1cc(=O)[nH][nH]1 | > 100 µM | > 100 µM | > 100 µM | > 100 µM | – | > 100 µM | > 100 µM | > 100 µM | > 100 µM | – | > 100 µM | – | – | – | – | – | – | – | –
